The record followed here is ChEMBL document CHEMBL1135953, “bis-Azaaromatic quaternary ammonium analogues: ligands for alpha4beta2* and alpha7* subtypes of neuronal nicotinic receptors” (Bioorg Med Chem Lett, 2002).

Bounds are passed on as bounds.

Assay [1] addresses Neuronal acetylcholine receptor subunit alpha-7 (Rattus norvegicus, UniProt Q05941). In words: Binding affinity nicotinic acetylcholine receptor alpha-7 was evaluated by its ability to inhibit [3H]methyllycaconitine ([3H]-MLA) binding to rat brain membranes. On the set-up: species or system Membrane.
Assay [2] has as its target Neuronal acetylcholine receptor; alpha4/beta2 (Rattus norvegicus, UniProt P09483+P12390). Briefly: Binding affinity for nicotinic acetylcholine receptor alpha4-beta2 was evaluated by its ability to inhibit [3H]NIC binding to rat brain membranes. On the set-up: species or system Membrane.
The next assay is filed under the species Rattus norvegicus. Briefly: Compound was evaluated for inhibiting NIC-evoked [86Rb+] efflux from rat thalamic synaptosomes. The following applies: Brain. Format: functional.

Sequence of Neuronal acetylcholine receptor; alpha4/beta2 (P09483 whole entry): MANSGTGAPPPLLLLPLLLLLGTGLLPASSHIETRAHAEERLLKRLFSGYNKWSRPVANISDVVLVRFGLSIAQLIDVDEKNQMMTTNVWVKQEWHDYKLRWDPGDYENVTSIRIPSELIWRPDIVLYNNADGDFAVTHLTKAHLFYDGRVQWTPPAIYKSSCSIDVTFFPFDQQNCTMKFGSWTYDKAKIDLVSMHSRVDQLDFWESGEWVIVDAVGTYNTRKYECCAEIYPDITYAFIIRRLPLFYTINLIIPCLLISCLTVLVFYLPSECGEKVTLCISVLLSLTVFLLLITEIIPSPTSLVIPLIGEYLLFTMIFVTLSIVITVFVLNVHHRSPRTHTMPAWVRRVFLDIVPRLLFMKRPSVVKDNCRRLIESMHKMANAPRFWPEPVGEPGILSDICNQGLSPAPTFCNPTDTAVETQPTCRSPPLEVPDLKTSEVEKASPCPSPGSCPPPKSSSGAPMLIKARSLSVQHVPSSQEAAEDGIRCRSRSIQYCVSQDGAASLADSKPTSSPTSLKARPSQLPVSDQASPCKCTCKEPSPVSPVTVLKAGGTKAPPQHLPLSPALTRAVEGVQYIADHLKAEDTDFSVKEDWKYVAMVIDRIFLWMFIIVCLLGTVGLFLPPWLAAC
Sequence of Neuronal acetylcholine receptor; alpha4/beta2 (P12390 whole entry): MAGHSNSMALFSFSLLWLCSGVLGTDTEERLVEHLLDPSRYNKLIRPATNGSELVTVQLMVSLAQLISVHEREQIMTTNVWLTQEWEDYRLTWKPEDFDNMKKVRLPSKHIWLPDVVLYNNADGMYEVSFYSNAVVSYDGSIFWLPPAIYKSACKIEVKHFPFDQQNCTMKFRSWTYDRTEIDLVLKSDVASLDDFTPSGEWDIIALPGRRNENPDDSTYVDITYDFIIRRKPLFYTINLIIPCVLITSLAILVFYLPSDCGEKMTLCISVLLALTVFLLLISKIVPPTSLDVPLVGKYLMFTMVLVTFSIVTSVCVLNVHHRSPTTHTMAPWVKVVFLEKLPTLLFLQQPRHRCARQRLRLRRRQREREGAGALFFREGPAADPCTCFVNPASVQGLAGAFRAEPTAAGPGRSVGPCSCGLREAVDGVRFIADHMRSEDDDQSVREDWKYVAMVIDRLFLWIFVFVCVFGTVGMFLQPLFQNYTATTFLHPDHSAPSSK
Sequence of Neuronal acetylcholine receptor subunit alpha-7 (Q05941 whole entry): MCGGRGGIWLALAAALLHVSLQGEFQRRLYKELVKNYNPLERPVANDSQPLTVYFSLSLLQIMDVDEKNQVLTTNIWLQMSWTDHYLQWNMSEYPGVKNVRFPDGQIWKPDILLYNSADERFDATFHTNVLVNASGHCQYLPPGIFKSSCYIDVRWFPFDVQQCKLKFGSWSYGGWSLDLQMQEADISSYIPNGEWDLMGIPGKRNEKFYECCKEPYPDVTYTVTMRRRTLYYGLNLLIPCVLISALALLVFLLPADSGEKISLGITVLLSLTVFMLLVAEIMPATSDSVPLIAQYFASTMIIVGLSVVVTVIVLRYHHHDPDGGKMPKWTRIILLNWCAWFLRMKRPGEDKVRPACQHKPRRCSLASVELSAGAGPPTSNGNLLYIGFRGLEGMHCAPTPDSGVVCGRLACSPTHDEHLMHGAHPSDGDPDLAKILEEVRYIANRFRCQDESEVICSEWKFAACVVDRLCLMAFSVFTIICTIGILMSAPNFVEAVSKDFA

Consider `c1cc[n+](CCCCC[n+]2ccccc2)cc1`, for which the Ki in assay [1] and in assay [2] was above 100 µM each time.

`c1ccc2c[n+](CCCCCCCC[n+]3ccc4ccccc4c3)ccc2c1`: the Ki – broadly, the equilibrium dissociation constant of an inhibitor or competing ligand from its target – in assay [1] amounted to 11.7 µM; in assay [2], 65.5 µM.

In assay [1], `c1cc[n+](CCCCCC[n+]2ccccc2)cc1` gave a Ki above 100 µM.

In assay [2], `c1ccc2c(c1)ccc[n+]2CCCCCCCCCCCC[n+]1cccc2ccccc21` came in with an inhibition constant (Ki) above 100 µM.

As for `CN1CCC[C@H]1c1ccc[n+](CCCCCC[n+]2cccc([C@@H]3CCCN3C)c2)c1`, the Ki in assay [1] is above 100 µM.

As for `c1ccc2c[n+](CCCCCCCCC[n+]3ccc4ccccc4c3)ccc2c1`, the figures for the inhibition constant (Ki) in assay [1] and in assay [2] were 5.95 µM and 7.89 µM, respectively.

In assay [1], `c1ccc2c[n+](CCCCCCCCCCC[n+]3ccc4ccccc4c3)ccc2c1` had an inhibition constant Ki of 5.46 µM.

In the case of `c1ccc2c(c1)ccc[n+]2CCCCCCCCC[n+]1cccc2ccccc21`, the inhibitory constant (Ki) came to 3.58 µM in assay [1] and 22.5 µM in assay [2].

`c1cc[n+](CCCCCCCC[n+]2ccccc2)cc1`: the Ki in assay [1] is above 100 µM; in assay [2], 34.3 µM.

Take `c1ccc2c(c1)ccc[n+]2CCCCCCCCCCC[n+]1cccc2ccccc21`: the inhibition constant (Ki) came to 2.58 µM in assay [1] and 37.8 µM in assay [2].

Turning to `CN1CCC[C@H]1c1ccc[n+](CCCCCCCCCCC[n+]2cccc([C@@H]3CCCN3C)c2)c1`, the IC50 (commonly the concentration needed to halve the response being measured) in the assay filed under Rattus norvegicus is 5.22 µM. In addition, the Ki in assay [1] was above 100 µM; in assay [2], 0.43 µM.

Regarding `CN1CCC[C@H]1c1ccc[n+](CCCCCCCC[n+]2cccc([C@@H]3CCCN3C)c2)c1`, the results for the Ki in assay [1] and in assay [2] were above 100 µM and 1.54 µM, respectively.

Regarding `c1ccc2c[n+](CCCCCCCCCC[n+]3ccc4ccccc4c3)ccc2c1`, the Ki was 7.25 µM in assay [1] and above 100 µM in assay [2].

For `c1cc[n+](CCCCCCCCC[n+]2ccccc2)cc1`, the Ki in assay [1] is above 100 µM.

In assay [1], `c1cc[n+](CCCCCCCCCC[n+]2ccccc2)cc1` showed a Ki above 100 µM.

`CN1CCC[C@H]1c1ccc[n+](CCCCCCCCCC[n+]2cccc([C@@H]3CCCN3C)c2)c1` came in with a 50% inhibitory concentration (IC50) in the assay filed under Rattus norvegicus of 3.76 µM. For the same compound, the inhibition constant Ki in assay [1] is above 100 µM; in assay [2], 0.33 µM.

As for `COc1cc2c3cc1Oc1cc(ccc1O)C[C@@H]1c4c(cc(OC)c(O)c4Oc4ccc(cc4)C[C@@H]3N(C)CC2)CC[N+]1(C)C`, the figures for the inhibitory constant (Ki) in assay [1] and in assay [2] were 4.79 µM and 9.72 µM, respectively.

Take `c1ccc2c(c1)ccc[n+]2CCCCCCCC[n+]1cccc2ccccc21`: the Ki in assay [1] is 2.39 µM; in assay [2], above 100 µM.

`CCCCCCCC[n+]1cccc([C@@H]2CCCN2C)c1` yielded an inhibitory constant (Ki) in assay [1] of 23.6 µM.

`CN1CCC[C@H]1c1ccc[n+](CCCCCCCCC[n+]2cccc([C@@H]3CCCN3C)c2)c1`: the inhibition constant Ki in assay [1] was above 100 µM; in assay [2] it was 5.03 µM.

Turning to `c1ccc2c(c1)ccc[n+]2CCCCCCCCCC[n+]1cccc2ccccc21`, the values for the inhibitory constant (Ki) in assay [1] and in assay [2] were 7.81 µM and above 100 µM, respectively.

Consider `CN1CCC[C@H]1c1ccc[n+](CCCCCCCCCCCC[n+]2cccc([C@@H]3CCCN3C)c2)c1`, for which the inhibition constant Ki in assay [1] was above 100 µM.

Take `c1ccc2c(c1)ccc[n+]2CCCCCC[n+]1cccc2ccccc21`: affinity in assay [2] was put at a Ki of 39.3 µM.

As for `c1cc[n+](CCCCCCCCCCC[n+]2ccccc2)cc1`, the Ki in assay [1] was determined as 57 µM; in assay [2] it was 14 µM.

As to `Cc1ccc[n+](CCCCCCCCCCC[n+]2cccc(C)c2)c1`, in assay [1], the inhibition constant (Ki) was above 100 µM.

On to `Cc1ccc[n+](CCCCCCCCC[n+]2cccc(C)c2)c1`, for which the Ki in assay [1] is above 100 µM; in assay [2], 79.9 µM.

For the compound `Cc1ccc[n+](CCCCCC[n+]2cccc(C)c2)c1`, the inhibition constant (Ki) in assay [1] and in assay [2] was above 100 µM each time.

With `Cc1ccc[n+](CCCCCCCCCCCC[n+]2cccc(C)c2)c1`, the Ki in assay [1] is above 100 µM; in assay [2], 48.6 µM.

Consider `Cc1ccc[n+](CCCCCCCC[n+]2cccc(C)c2)c1`, for which the Ki in assay [1] and in assay [2] was above 100 µM in each case.

For the compound `Cc1ccc[n+](CCCCCCCCCC[n+]2cccc(C)c2)c1`, the Ki in assay [1] and in assay [2] was above 100 µM each time.

For the compound `CCCCCCCCCC[n+]1cccc([C@@H]2CCCN2C)c1`, the Ki was above 100 µM in assay [1] and 0.064 µM in assay [2].

Regarding `C[N+](C)(C)CCCCCC[N+](C)(C)C` [HEXAMETHONIUM CHLORIDE], the Ki in assay [1] is above 100 µM; in assay [2] it was 21.7 µM.
